The text below walks through data of ChEMBL document CHEMBL1146613, “Novel inhibitors of procollagen C-terminal proteinase. Part 1: diamino Acid hydroxamates” (Bioorg Med Chem Lett, 2003).

The term pKi denotes the Ki on a negative log10 scale, so that one unit is a factor of ten. Low values mean a large Ki, high ones a small Ki.

pKi: −log10 of the molar value.

In the experiment the target is T1, Bone morphogenetic protein 1 (Homo sapiens, UniProt P13497).
T1 sequence (P13497 whole entry): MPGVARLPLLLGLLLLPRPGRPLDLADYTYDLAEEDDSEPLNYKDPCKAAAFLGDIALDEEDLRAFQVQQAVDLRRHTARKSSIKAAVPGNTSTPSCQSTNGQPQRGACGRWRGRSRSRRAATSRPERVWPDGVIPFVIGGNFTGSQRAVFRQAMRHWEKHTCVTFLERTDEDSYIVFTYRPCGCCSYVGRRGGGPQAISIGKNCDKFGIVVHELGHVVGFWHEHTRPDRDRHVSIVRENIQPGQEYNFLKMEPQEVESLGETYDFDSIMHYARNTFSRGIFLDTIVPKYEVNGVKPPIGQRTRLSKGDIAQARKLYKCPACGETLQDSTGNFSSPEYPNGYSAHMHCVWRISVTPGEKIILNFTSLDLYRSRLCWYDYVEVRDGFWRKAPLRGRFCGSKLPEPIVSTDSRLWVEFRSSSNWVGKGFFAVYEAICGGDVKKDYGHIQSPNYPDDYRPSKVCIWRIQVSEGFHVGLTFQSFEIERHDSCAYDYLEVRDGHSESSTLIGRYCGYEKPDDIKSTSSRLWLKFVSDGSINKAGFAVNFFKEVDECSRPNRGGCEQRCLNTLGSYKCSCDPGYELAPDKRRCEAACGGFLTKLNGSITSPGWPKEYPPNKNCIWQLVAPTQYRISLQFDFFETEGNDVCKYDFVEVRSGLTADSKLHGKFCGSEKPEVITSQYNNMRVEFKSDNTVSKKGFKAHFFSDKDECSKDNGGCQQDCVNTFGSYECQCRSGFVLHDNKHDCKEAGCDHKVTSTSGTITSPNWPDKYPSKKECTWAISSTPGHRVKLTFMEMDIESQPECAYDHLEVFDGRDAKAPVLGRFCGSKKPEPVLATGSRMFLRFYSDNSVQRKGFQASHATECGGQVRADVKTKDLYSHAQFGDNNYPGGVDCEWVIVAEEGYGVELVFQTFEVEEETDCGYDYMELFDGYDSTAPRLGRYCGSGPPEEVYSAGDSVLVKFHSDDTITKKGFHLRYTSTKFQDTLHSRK
Put plainly: In vitro inhibitory activity against procollagen C-terminal proteinase (PCP) in HT1080 cells using synthetic peptide as substrate. Format: cell-based, HT-1080.
With `COc1ccc(S(=O)(=O)N(Cc2ccc3c(c2)OCO3)[C@H](CNS(=O)(=O)Cc2cccc([N+](=O)[O-])c2)C(=O)NO)cc1`, the pKi was 7.55.

Molecule `COc1ccc(S(=O)(=O)N(Cc2ccc3c(c2)OCO3)[C@H](CNC(=O)c2ccccc2-n2cccc2)C(=O)NO)cc1` showed a pKi of 8.10.

`COc1ccc(S(=O)(=O)N(Cc2ccc3c(c2)OCO3)[C@H](CCNC(=O)CCc2nc3ccccc3[nH]2)C(=O)NO)cc1` gave a negative logarithm of the Ki (pKi) of 6.39.

For `COc1ccc(S(=O)(=O)N(Cc2ccc3c(c2)OCO3)[C@H](CCNC(=O)c2ccccc2-n2cccc2)C(=O)NO)cc1`, the negative logarithm of the Ki (pKi) was 6.28.

Turning to `COc1ccc(S(=O)(=O)N(Cc2ccc3c(c2)OCO3)[C@H](CCNC(=O)c2c(-c3ccccc3)noc2C)C(=O)NO)cc1`, the negative-log Ki (pKi) was 6.02.

As to `COC(=O)c1ccc(C(=O)NCC[C@H](C(=O)NO)N(Cc2ccc3c(c2)OCO3)S(=O)(=O)c2ccc(OC)cc2)cc1`, the pKi was 6.08.

Molecule `COc1ccc(S(=O)(=O)N(Cc2ccc3c(c2)OCO3)[C@H](CNC(=O)c2ccccc2)C(=O)NO)cc1` had a pKi of 7.85.

For the molecule `COc1ccc(S(=O)(=O)N(Cc2ccc3c(c2)OCO3)[C@H](CCNC(=O)c2cnoc2C)C(=O)NO)cc1`, the pKi is 7.07.

`COc1ccc(S(=O)(=O)N(Cc2ccc3c(c2)OCO3)[C@H](CCCNC(=O)c2ccccc2)C(=O)NO)cc1` showed a pKi of 7.00.

Take `COc1ccc(S(=O)(=O)N(Cc2ccc3c(c2)OCO3)[C@H](CNC(=O)CNc2cnccn2)C(=O)NO)cc1`: the pKi was 6.60. This pKi is 0.40 log units lower than that of the molecule before.

As to `COc1ccc(S(=O)(=O)N(Cc2ccc3c(c2)OCO3)[C@H](CNCc2ccc(NC(C)=O)cc2)C(=O)NO)cc1`, the negative-log Ki (pKi) was 6.00.

As for `COc1ccc(S(=O)(=O)N(Cc2ccc3c(c2)OCO3)[C@H](CCNC(=O)CNc2cnccn2)C(=O)NO)cc1`, the negative logarithm of the Ki (pKi) is 5.60.

In turn, `COC(=O)c1ccc(C(=O)NC[C@H](C(=O)NO)N(Cc2ccc3c(c2)OCO3)S(=O)(=O)c2ccc(OC)cc2)cc1` gave a negative-log Ki (pKi) of 8.15.

Consider `COc1ccc(S(=O)(=O)N(Cc2ccc3c(c2)OCO3)[C@H](CNC(=O)c2cnoc2C)C(=O)NO)cc1`, for which the pKi was 5.71.

`CCOc1ccc(NC(=O)NC[C@H](C(=O)NO)N(Cc2ccc3c(c2)OCO3)S(=O)(=O)c2ccc(OC)cc2)cc1` showed a negative logarithm of the Ki (pKi) of 7.66. This pKi lies 1.95 log units higher than the previous one.

`COc1ccc(S(=O)(=O)N(Cc2ccc3c(c2)OCO3)[C@H](CCNC(=O)c2ccccc2)C(=O)NO)cc1`: the pKi is 6.33. This pKi is 1.33 log units lower than that of the molecule before.

In the case of `CCOC(=O)C1CCC(NCC(=O)NCC[C@H](C(=O)NO)N(Cc2ccc3c(c2)OCO3)S(=O)(=O)c2ccc(OC)cc2)CC1` (some centres undefined), the pKi is 6.33.

`COc1ccc(S(=O)(=O)N(Cc2ccc3c(c2)OCO3)[C@H](CCCCNC(=O)c2ccccc2)C(=O)NO)cc1` showed a pKi of 6.46.

`COc1ccc(S(=O)(=O)N(Cc2ccc3c(c2)OCO3)[C@H](CNC(=O)NS(=O)(=O)c2ccc(Cl)cc2)C(=O)NO)cc1`: the negative logarithm of the Ki (pKi) was 7.74.
